Earlier results in US20240058331A1, “COMBINATION THERAPIES FOR TREATMENT OF CIRRHOSIS WITH PORTAL HYPERTENSION” (priority 2022, published 2024).

Legend:
[1] = sedation for HVPG assessment
[2] = biological target: T1, ETB (Homo sapiens, UniProt P24530); conditions: up to 50 mM
T1 sequence (P24530 27-442): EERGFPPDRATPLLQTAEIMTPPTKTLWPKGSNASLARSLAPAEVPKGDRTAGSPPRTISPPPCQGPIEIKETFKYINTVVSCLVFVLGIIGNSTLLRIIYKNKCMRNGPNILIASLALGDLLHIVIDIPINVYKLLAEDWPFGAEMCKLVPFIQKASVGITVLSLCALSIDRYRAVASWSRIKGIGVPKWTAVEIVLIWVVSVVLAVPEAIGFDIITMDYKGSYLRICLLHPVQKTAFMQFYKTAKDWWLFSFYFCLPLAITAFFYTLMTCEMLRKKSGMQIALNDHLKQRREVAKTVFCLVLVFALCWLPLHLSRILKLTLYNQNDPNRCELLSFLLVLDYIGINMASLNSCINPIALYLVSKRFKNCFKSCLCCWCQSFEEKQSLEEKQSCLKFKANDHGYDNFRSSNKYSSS

[3] = moderate hepatic impairment vs healthy control participants; expected
[4] = unlikely to be clinically relevant with standard midazolam dosing

SMILES: CCOc1ccc(Cc2cc([C@@H]3O[C@H](CO)[C@@H](O)[C@H](O)[C@H]3O)ccc2Cl)cc1 [Dapagliflozin]
- safety or tolerability signals in participants with renal impairment (10 mg once daily, chronic kidney disease (DAPA-CKD) and heart failure (DAPA HF) populations): did not lead to any unique safety or tolerability signals
- tolerability in healthy volunteers (doses up to 100 mg for 14 days): tolerable

SMILES: Cc1ncc2n1-c1ccc(Cl)cc1C(c1ccccc1F)=NC2 [Midazolam]
- influence on HVPG [1]: does not influence HVPG

SMILES: COc1nc(C)cnc1NS(=O)(=O)c1cccnc1-c1ccc(-c2nnco2)cc1 [Zibotentan]
- effect at the ETB [2]: no effect
- exposure, times higher in participants with moderate hepatic impairment compared to healthy control participants [3]: 1.45 times
- increase in midazolam exposure [4]: 20%
